Measured values as given in ChEMBL document CHEMBL1201862, “PubChem BioAssay data set” (2004).
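Exposure lasted 48 hours, with cells grown in 96-well plates and compounds tested at five concentrations. GI50 marks 50% less growth.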 Activity calls are given as the source filed them. Cut-off read from the data, not from the text of the source: active = GI50 up to about 1.1 µM and inactive = higher.

Experiments:
Assay in all cases: inhibition of tumour cell growth, NCI panel, 48 h
K562 = test system: K562
HCT-116 = test system: HCT-116
HT-29 = test system: HT-29
LOX IMVI = test system: LOX IMVI
COLO 205 = test system: COLO 205
OVCAR-3 = test system: OVCAR-3
RPMI-8226 = test system: RPMI-8226
M14 = test system: M14
CAKI-1 = test system: CAKI-1
SNB-19 = test system: SNB-19
UACC-62 = test system: UACC-62
Malme-3M = test system: Malme-3M
IGROV-1 = test system: IGROV-1
U-251 = test system: U-251
OVCAR-5 = test system: OVCAR-5
NCI-H460 = test system: NCI-H460
OVCAR-8 = test system: OVCAR-8
OVCAR-4 = test system: OVCAR-4
SK-MEL-5 = test system: SK-MEL-5

Measured: GI50

C=CC[C@@]1(C#N)C[C@H](C[C@]2(C#N)C[C@H](CCl)OC(C)(C)O2)OC(C)(C)O1
inactive: K562 53 µM | HCT-116 55.2 µM | HT-29 > 100 µM | LOX IMVI > 100 µM | COLO 205 > 100 µM | OVCAR-3 > 100 µM | RPMI-8226 52.5 µM | M14 > 100 µM | CAKI-1 > 100 µM | SNB-19 > 100 µM | UACC-62 > 100 µM | Malme-3M > 100 µM | IGROV-1 > 100 µM | U-251 > 100 µM | OVCAR-5 > 100 µM | NCI-H460 > 100 µM | OVCAR-8 > 100 µM | OVCAR-4 > 100 µM | SK-MEL-5 63.5 µM

O=C(OCCOCBr)c1ccccc1
inactive: K562 > 100 µM | HCT-116 > 100 µM | HT-29 > 100 µM | LOX IMVI > 100 µM | COLO 205 > 100 µM | OVCAR-3 > 100 µM | RPMI-8226 > 100 µM | M14 > 100 µM | CAKI-1 > 100 µM | SNB-19 > 100 µM | UACC-62 > 100 µM | Malme-3M > 100 µM | IGROV-1 > 100 µM | U-251 > 100 µM | OVCAR-5 > 100 µM | NCI-H460 > 100 µM | OVCAR-8 > 100 µM | OVCAR-4 > 100 µM | SK-MEL-5 > 100 µM

c1ccc(N2N=NC3C4CC(C5c6ccccc6C45)C32)cc1 (centres undefined)
inactive: K562 36.1 µM | HCT-116 24.7 µM | HT-29 19.6 µM | LOX IMVI 18.8 µM | COLO 205 41.4 µM | OVCAR-3 26.6 µM | RPMI-8226 18.4 µM | M14 54.1 µM | CAKI-1 31 µM | SNB-19 69.5 µM | UACC-62 28.1 µM | Malme-3M 20.8 µM | IGROV-1 56.8 µM | U-251 32.5 µM | OVCAR-5 44.6 µM | NCI-H460 40.6 µM | OVCAR-8 57.7 µM | OVCAR-4 27.3 µM | SK-MEL-5 18.7 µM

O=C(CCC(=O)Nc1ccc(Cl)c(Cl)c1)Cc1nc2ccccc2o1
inactive: K562 > 100 µM | HCT-116 > 100 µM | HT-29 > 100 µM | LOX IMVI > 100 µM | COLO 205 > 100 µM | OVCAR-3 29.3 µM | RPMI-8226 > 100 µM | M14 > 100 µM | CAKI-1 > 100 µM | SNB-19 > 100 µM | UACC-62 > 100 µM | Malme-3M > 100 µM | IGROV-1 > 100 µM | U-251 > 100 µM | OVCAR-5 > 100 µM | NCI-H460 > 100 µM | OVCAR-8 > 100 µM | OVCAR-4 > 100 µM | SK-MEL-5 > 100 µM

CC(C)N(C(=O)C12C3C4C5C3C1(C(=O)N(C(C)C)C(C)C)C5(C#N)C42)C(C)C (centres undefined)
inactive: K562 33.7 µM | HCT-116 38.4 µM | HT-29 > 100 µM | LOX IMVI 20.8 µM | COLO 205 40.5 µM | OVCAR-3 > 100 µM | RPMI-8226 26.7 µM | M14 > 100 µM | CAKI-1 > 100 µM | SNB-19 > 100 µM | UACC-62 > 100 µM | Malme-3M > 100 µM | IGROV-1 > 100 µM | U-251 > 100 µM | OVCAR-5 > 100 µM | NCI-H460 61 µM | OVCAR-8 > 100 µM | OVCAR-4 > 100 µM | SK-MEL-5 > 100 µM

COc1ccc(-c2c(C(=O)Nc3ccccc3)c(-c3ccccc3)n(C3OC(CO)C(O)C(O)C3O)c(=S)c2C#N)cc1 (centres undefined)
inactive: K562 > 100 µM | HCT-116 > 100 µM | HT-29 > 100 µM | LOX IMVI > 100 µM | COLO 205 > 100 µM | OVCAR-3 > 100 µM | RPMI-8226 > 100 µM | M14 > 100 µM | CAKI-1 > 100 µM | SNB-19 > 100 µM | UACC-62 > 100 µM | Malme-3M > 100 µM | IGROV-1 > 100 µM | U-251 > 100 µM | OVCAR-5 > 100 µM | NCI-H460 > 100 µM | OVCAR-8 > 100 µM | OVCAR-4 > 100 µM | SK-MEL-5 > 100 µM
